Where a name gives a salt, the structure may show the parent alone.
How the values were obtained:
[1] = biological target: T1, recombinant NPM1 C-terminal domain (residues 240-294) (Homo sapiens, UniProt P06748); test: In vitro NPM1 C-terminal domain labeling (Western blot); assay type: biochemical; details: 10 μM NPM1, 100 μM probe, 100 μM glutathione, HEPES pH 7.5, about 440 nm, 15 min
T1 construct: 6×His (N, cleaved yes); made in house; host or cells: NiCo21(DE3) E. coli
Description: In vitro NPM1 C-terminal domain labeling and characterization: Labeling of recombinant NPM1 with the pyridinium salt 2b was performed with the following conditions: 10 μM NPM1 was treated with DMSO or 100 μM pyridinium salt 2b (2% DMSO) in 50 mM HEPES pH 7.5, 150 mM NaCl, 1.5 mM MgCl2, and 100 μM glutathione (GSH). Samples were irradiated at 450 nm (Kessil PR160L-440) at 100% intensity for 15 minutes at room temperature or 50° C. The reaction mixture was quenched with the addition of 4X LDS buffer (Invitrogen) containing 10 mM DTT (Pierce) and boiled for 10 minutes before resolving proteins on 4-12% Bis-Tris NuPAGE gels (Invitrogen), transferred onto a Trans-Blot Turbo Mini 0.2 μm nitrocellulose membrane (BioRad), blocked with 5% BSA in tris-buffered saline with Tween-20 (TBST), and incubated with HRP-linked anti-biotin (Cell Signaling Technology, #7075).

thioredoxin = biological target: T2, thioredoxin (Escherichia coli, UniProt P0AA25); test: Photochemical labeling of thioredoxin with pyridinium salt (General Procedure B, LC/MS); assay type: biochemical; details: trypsin digest
T2 construct: purchased Sigma Aldrich; host or cells: E. coli
T2 sequence (P0AA25 whole entry): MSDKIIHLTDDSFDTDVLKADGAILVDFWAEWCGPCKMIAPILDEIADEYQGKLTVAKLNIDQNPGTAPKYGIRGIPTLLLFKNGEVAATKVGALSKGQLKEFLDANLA
Description: General Procedure B: Photochemical Irradiation of Peptides and Proteins: To a 2 mL Pyrex LC/MS vial (Thermo model #03-391-39) were sequentially added solutions containing the desired biomolecule, glutathione (GSH), pyridinium salt, and ammonium acetate (NH4OAc). The resulting solution was diluted to a final volume of 500 μL and then sparged using nitrogen for a minimum of 30 minutes prior to irradiation. The actively sparging solution was then placed in an EvoluChem™ PhotoRedOx Box photoreactor that was equipped with a Kessil, PR160 427 nm LED Lamp and was then irradiated (100% lamp intensity) for the designated time at room temperature while maintaining active sparging. The resultant reaction mixture was then analyzed directly by LC/MS. Analysis of labeling outcomes using LC/MS was performed either by extracted ion chromatogram intensities (method A) or by integrating the area under the peaks associated with peptide content (method B). These values were totaled, and estimated percentages were assigned according to relative intensities of peaks or ion counts.
Labeling of Thioredoxin with Pyridinium Salt 2a (Thioredoxin-2a Conjugate). […] The reaction mixture was directly analyzed by LC/MS using method A and was estimated to have proceeded with 93% conversion and a 14.5:1 mono:di labeled ratio and 3% glutathionylation of all protein content. […]

T1 sequence (P06748 240-294): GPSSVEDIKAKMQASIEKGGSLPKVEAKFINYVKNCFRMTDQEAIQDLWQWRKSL

Western analysis of construct labeling [1]	SMILES	Modified Trp (thioredoxin)
photo-dependent labeling	COc1ccc2cc(-c3cc(C)[n+](N(C)C(=O)OCCCCC[C@H]4SC[C@H]5NC(=O)N[C@H]54)c(C)c3)ccc2c1 (stereo in doubt) [pyridinium salt 2b, 4-(6-methoxynaphthalen-2-yl)-2,6-dimethyl-1-(methyl(((5-((3aR,4R,6aS)-2-oxohexahydro-1H-thieno[3,4-d]imidazol-4-yl)pentyl)oxy)carbonyl)amino)pyridin-1-ium tetrafluoroborate]	–
–	COC(=O)N(C)[n+]1c(C)cc(-c2ccc3cc(OC)ccc3c2)cc1C [pyridinium salt 2a, 1-((methoxycarbonyl)(methyl)amino)-4-(6-methoxynapthalen-2-yl)-2,6-dimethylpyridin-1-ium tetrafluoroborate]	Trp-31

— patent publication US20240262845A1, “PYRIDINIUM SALTS, METHODS OF MAKING, AND METHODS OF USE” (UNIVERSITY OF WYOMING, priority 2023, published 2024)
